Assay results from US20140128385A1 (NOVARTIS AG, priority 2011, published 2014).
Counter-ions that a name gives are not always drawn.

Target: T1, BACE-2 (Homo sapiens, UniProt Q9Y5Z0)
T1 construct: Recombinant BACE-2 (extracellular domain, expressed in baculovirus and purified using standard methods); made in house
T1 sequence (Q9Y5Z0 63-473 limits assumed): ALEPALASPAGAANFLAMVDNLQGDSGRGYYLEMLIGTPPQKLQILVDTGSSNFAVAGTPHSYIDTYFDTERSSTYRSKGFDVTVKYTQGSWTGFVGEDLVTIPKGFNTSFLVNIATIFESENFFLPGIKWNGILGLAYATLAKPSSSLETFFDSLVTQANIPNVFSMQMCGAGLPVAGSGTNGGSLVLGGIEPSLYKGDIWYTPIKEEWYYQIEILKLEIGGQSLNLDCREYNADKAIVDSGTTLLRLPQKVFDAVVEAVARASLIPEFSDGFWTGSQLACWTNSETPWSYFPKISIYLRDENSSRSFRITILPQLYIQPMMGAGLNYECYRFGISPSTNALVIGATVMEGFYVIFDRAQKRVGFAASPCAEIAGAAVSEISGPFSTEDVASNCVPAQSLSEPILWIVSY
Experiment: assay for inhibition of BACE-2
Format: biochemical

SMILES | IC50 [µM]
COCCN1CC(C)(c2cc(NC(=O)c3ccc(Br)cn3)ccc2F)N=C(N)C1=O (centres unmarked) [Example 196, 5-Bromo-pyridine-2-carboxylic acid {3-[6-amino-4-(2-methoxy-ethyl)-2-methyl-5-oxo-2,3,4,5-tetrahydro-pyrazin-2-yl]-4-fluoro-phenyl}-amide hydrochloride] | 0.017
NC1=NC(CF)(c2cc(NC(=O)c3ccc(Cl)cn3)ccc2F)COC1 (centres unmarked) [Example 87] | 0.025
CC(=O)N1CC(N)=NC(c2cc(NC(=O)c3ncc(OC(F)F)cc3C)ccc2F)(C(F)F)C1 (centres unmarked) [Example 211, 5-Difluoromethoxy-3-methyl-pyridine-2-carboxylic acid [3-(4-acetyl-6-amino-2-difluoromethyl-2,3,4,5-tetrahydro-pyrazin-2-yl)-4-fluoro-phenyl]-amide] | 0.089
C[C@@]1(c2cc(NC(=O)c3ncc(C(F)F)cc3Cl)ccc2F)CO[C@@](C)(C(F)(F)F)C(N)=N1 [Example 246, 3-Chloro-5-difluormethyl-pyridine-2-carboxylic acid [3-((3R,6R)-5-amino-3,6-dimethyl-6-trifluoromethyl-3,6-dihydro-2H-[1,4]oxazin-3-yl)-4-fluoro-phenyl]-amide-amide] | 0.008
CC1(c2cccc(NC(=O)c3cccnc3)c2)COCC(N)=N1 (centres unmarked) [Example 28, N-[3-(5-Amino-3-methyl-3,6-dihydro-2H-[1,4]oxazin-3-yl)-phenyl]-nicotinamide hydrochloride] | > 10
NC1=N[C@@](c2cc(NC(=O)c3ncc(Br)cc3O)ccc2F)(C(F)F)COC1 [Example 119] | 0.014
[2H]C([2H])([2H])Oc1cnc(C(=O)Nc2ccc(F)c([C@]3(C(F)F)COCC(N)=N3)c2)c(N)n1 [Example 217] | 0.153
COCCOc1cnc(C(=O)Nc2ccc(F)c([C@]3(C)CO[C@@](C)(C(F)(F)F)C(N)=N3)c2)cn1 [Example 74] | 0.514
Cc1cc(C#N)cnc1C(=O)Nc1ccc(F)c(C2(C)COC(CF)(CF)C(N)=N2)c1 (racemic) [Example 251, 5-Cyano-3-methyl-pyridine-2-carboxylic acid [3-(5-amino-6,6-bis-fluoromethyl-3-methyl-3,6-dihydro-2H-[1,4]oxazin-3-yl)-4-fluoro-phenyl]-amide] | 0.041
NC1=N[C@@](c2cc(NC(=O)c3cn4ccccc4n3)ccc2F)(C(F)F)COC1 [Example 129] | 1.63
CC1(c2cccc(NC(=O)c3ccc(C#N)cn3)c2)COCC(N)=N1 (centres unmarked) [Example 14, 5-Cyano-pyridine-2-carboxylic acid [3-(5-amino-3-methyl-3,6-dihydro-2H-[1,4]oxazin-3-yl)-phenyl]-amide hydrochloride] | 0.335
